From ChEMBL document CHEMBL1201862, “PubChem BioAssay data set” (2004)
Active and inactive are the calls of the source.

How the values were obtained:
[1] = target: DNA dC->dU-editing enzyme APOBEC-3G (Homo sapiens, UniProt Q9HC16); type: functional;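 note: Dose-response counterscreen measuring inhibition of APOBEC3G DNA deaminase activity, run while confirming APOBEC3A inhibitors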
[2] = target: DNA dC->dU-editing enzyme APOBEC-3A (Homo sapiens, UniProt P31941); assay: Dose Response confirmation of small molecule APOBEC3A DNA Deaminase Inhibitors via a fluorescence-based single-stranded DNA deaminase assay. [Related pubchem assays (depositor defined):AID493011, AID493024]; type: functional
[3] = target: Voltage-dependent T-type calcium channel subunit alpha-1H (Homo sapiens, UniProt O95180); type: functional;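 note: channel activity triggered by adding a high calcium stimulation buffer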
[4] = target: T1, Alkaline phosphatase, tissue-nonspecific isozyme (Homo sapiens, UniProt P05186); assay: human TNAP enzyme inhibitors, SAR follow-up, biochemical, luminescent, dose response (AID 1056)
T1 sequence (P05186 whole entry): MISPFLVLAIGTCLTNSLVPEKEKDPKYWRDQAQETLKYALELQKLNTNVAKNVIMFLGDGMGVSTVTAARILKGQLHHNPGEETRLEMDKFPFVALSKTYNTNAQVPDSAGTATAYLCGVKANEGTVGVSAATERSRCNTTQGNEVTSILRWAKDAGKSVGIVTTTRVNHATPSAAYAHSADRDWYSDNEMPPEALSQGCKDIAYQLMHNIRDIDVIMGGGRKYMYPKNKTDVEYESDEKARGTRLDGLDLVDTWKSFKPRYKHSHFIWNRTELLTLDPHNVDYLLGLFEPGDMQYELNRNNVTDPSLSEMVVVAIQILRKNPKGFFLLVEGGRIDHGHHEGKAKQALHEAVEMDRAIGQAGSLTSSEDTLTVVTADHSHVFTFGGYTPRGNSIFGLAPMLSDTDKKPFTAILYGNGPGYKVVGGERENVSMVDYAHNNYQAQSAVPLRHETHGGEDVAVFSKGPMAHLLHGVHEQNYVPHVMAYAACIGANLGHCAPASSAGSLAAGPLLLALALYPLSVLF

[5] = target: Alkaline phosphatase, placental type (Homo sapiens, UniProt P05187); assay: PLAP enzyme inhibitors, confirmation, biochemical, luminescence (AID 1512); type: functional
Trypsin = Trypsin (Sus scrofa, UniProt P00761); assay: porcine trypsin inhibitors, dose response, selectivity assay for Rce1 protease inhibitor project, biochemical, quenched peptide fluorescence, cherry-pick (AID 488789)
[6] = target: FAD-linked sulfhydryl oxidase ALR (Homo sapiens, UniProt P55789); assay: inhibitors of human ALR sulfhydryl oxidase, dose response, biochemical, H2O2 detection, luminescence, cherry-pick (AID 493248)
[7] = target: T2, Serine/threonine-protein phosphatase (Candida dubliniensis (strain CD36 / CBS 7987 / NCPF 3949 / NRRLY-17841) (Yeast), UniProt B9W6M3); assay: calcineurin pathway inhibitors in yeast reporter, dose response, S. cerevisiae, CDRE-lacZ, luminescence, secondary (AID 2388); type: functional, cell-based;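 note: yeast reporter cells carrying a calcineurin-responsive lacZ construct stimulated with calcium chloride; luminescent beta-galactosidase reporter signal in whole cells rather than isolated phosphatase activity; potency for inhibition where a drop in reporter signal means calcineurin blockade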
T2 sequence (B9W6M3 whole entry): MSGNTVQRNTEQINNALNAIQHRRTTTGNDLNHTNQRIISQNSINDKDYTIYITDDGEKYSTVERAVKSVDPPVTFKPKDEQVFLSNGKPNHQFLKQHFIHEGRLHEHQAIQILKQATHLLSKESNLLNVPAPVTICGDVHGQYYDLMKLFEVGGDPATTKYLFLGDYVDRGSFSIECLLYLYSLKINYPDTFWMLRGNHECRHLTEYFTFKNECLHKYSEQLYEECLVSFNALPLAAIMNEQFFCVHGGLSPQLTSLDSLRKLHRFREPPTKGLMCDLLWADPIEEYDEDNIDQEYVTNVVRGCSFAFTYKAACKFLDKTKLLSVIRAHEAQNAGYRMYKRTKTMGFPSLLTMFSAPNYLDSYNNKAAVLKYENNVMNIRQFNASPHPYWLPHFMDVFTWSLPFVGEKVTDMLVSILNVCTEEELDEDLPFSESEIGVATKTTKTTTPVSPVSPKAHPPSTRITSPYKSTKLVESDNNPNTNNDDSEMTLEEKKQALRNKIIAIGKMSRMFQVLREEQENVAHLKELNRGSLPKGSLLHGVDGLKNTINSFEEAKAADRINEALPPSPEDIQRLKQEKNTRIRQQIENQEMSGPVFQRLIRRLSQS

[8] = NIH-3T3 fibroblast cytotoxicity, dose response, cytotoxicity control, cell-based, fluorescence, Alamar Blue, secondary assay (AID 2327); type: functional;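 note: NIH-3T3 mouse fibroblasts cultured with fluconazole at 8 µg/mL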
[9] = C. albicans growth with fluconazole, confirmation, fluorescence, retest (AID 2467); type: functional, cell-based
[10] = target: ATP-dependent molecular chaperone HSP82 (Candida albicans (strain WO-1) (Yeast), UniProt C4YTQ8); assay: loss of DOC-induced GRE-beta-galactosidase reporter signal, dose response, Hsp90 inhibitor project, S. cerevisiae, luminescence (AID 2400); type: functional, cell-based;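 note: beta-galactosidase luminescence from glucocorticoid response element reporter as proxy for Hsp90 function; inhibitor potency where signal loss means Hsp90 inhibition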
Aminopeptidase N = target: T3, Aminopeptidase N (Plasmodium falciparum FcB1/Columbia, UniProt O96935); assay: P. falciparum M1AAP inhibitors, biochemical, fluorogenic H-Leu-NHMec substrate, 1536-well (AID 1445); design: species or system Plasmodium falciparum 3D7, 3D7
T3 sequence (O96935 whole entry): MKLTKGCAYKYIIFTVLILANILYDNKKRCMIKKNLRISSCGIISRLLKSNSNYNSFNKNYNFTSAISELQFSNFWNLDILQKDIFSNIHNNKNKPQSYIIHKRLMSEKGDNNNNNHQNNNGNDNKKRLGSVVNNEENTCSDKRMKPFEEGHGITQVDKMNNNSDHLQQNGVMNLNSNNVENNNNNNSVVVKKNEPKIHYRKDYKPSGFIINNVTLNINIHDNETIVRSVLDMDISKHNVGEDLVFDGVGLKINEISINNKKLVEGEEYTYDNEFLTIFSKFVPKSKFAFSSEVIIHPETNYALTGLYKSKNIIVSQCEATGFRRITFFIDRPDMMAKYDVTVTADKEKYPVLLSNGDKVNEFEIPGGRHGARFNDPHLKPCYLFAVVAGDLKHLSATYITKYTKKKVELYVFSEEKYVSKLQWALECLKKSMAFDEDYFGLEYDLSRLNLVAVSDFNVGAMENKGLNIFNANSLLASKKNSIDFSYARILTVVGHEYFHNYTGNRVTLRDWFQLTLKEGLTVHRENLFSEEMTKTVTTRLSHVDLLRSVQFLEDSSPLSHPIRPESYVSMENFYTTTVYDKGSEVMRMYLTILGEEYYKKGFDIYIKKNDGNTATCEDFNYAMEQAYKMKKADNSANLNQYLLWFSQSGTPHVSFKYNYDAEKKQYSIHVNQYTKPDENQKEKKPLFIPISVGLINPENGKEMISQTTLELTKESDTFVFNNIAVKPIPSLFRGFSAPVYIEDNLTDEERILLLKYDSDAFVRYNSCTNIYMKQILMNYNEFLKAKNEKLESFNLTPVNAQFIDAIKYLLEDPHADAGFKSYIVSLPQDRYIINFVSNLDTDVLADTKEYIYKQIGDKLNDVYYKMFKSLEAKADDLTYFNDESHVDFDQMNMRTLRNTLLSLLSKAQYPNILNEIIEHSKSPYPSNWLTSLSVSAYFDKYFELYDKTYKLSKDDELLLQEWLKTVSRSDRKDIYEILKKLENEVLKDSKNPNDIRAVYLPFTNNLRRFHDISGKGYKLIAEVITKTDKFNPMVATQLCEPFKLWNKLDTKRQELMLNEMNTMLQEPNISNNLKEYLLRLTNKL

HEK293 [11] = assay: cells; type: functional, cell-based; settings: Homo sapiens
HEK293 [12] = assay: NOD1 signaling inhibitors, primary screen, cell-based, luminescence, uHTS (AID 1578); type: functional; settings: Homo sapiens
HEK293 [13] = assay: cells; type: functional, cell-based; settings: Homo sapiens; remark: listed apart in the source
HEK293 [14] = assay: NOD2 signaling inhibitors in MDP-stimulated cells, cell-based, uHTS, luminescence (AID 2001); type: functional; settings: Homo sapiens
[15] = target: Peroxisome proliferator-activated receptor gamma/Nuclear receptor coactivator 3 (Homo sapiens, UniProt P37231); assay: (§1) TR-FRET dose response biochemical High Throughput Screening assay for agonists of the steroid receptor coactivator 3 (SRC-3) recruitment by the peroxisome proliferator-activated receptor gamma (PPAR gamma): non-selective agonists. [Related pubchem assays: 1301 (Confirmation screen.), 1048 (Primary screen.)]; type: functional
Large T antigen = Large T antigen (Simian virus 40, UniProt P03070); type: functional, Betapolyomavirus macacae;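 note: Confirmatory-stage PubChem screen for compounds that inhibit SV40 T antigen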
[16] = target: Peroxisome proliferator-activated receptor gamma/Nuclear receptor coactivator 1 (Homo sapiens, UniProt P37231); assay: as §1, with “1 (SRC-1)” for “3 (SRC-3)”, “assays (depositor defined):AID1300, AID1808, AID504735, AID631]” for “assays: 1301 (Confirmation screen.), 1048 (Primary screen.)]”; type: protein assay
[17] = target: Peroxisome proliferator-activated receptor gamma/Nuclear receptor coactivator 2 (Homo sapiens, UniProt P37231); assay: TR-FRET dose response biochemical High Throughput Screening assay for agonists of the steroid receptor coactivator 2 (SRC-2) recruitment by the peroxisome proliferator-activated receptor gamma (PPAR gamma): non-selective agonists. [Related pubchem assays: 1297, 1032 ]; type: functional
[18] = cytotoxicity in HEK-293T cells, dose response, cytotoxicity control for BCR NF-kB inhibitor project, luminescence, B-cell screen hits (AID 489021); type: functional, cell-based;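 note: HEK-293T cells carrying an NF-kB luciferase reporter; cells exposed to compound for about 14 hours before viability readout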
[19] = HEp-2 cell cytotoxicity, dose response, cytotoxicity control for RSV inhibitor project, HTS (AID 2410); type: functional; settings: human respiratory syncytial virus
Cytochrome P450 2C19 = Cytochrome P450 2C19 (Homo sapiens, UniProt P33261); assay: Cytochrome panel assay with activity outcomes. Panel member name: p450-cyp2c19 Compounds with AC50 equal or less than 10 uM are considered active; type: functional
Cytochrome P450 2D6 = Cytochrome P450 2D6 (Homo sapiens, UniProt P10635);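 note: CYP2D6 member of a cytochrome P450 panel assay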
Cytochrome P450 2C9 [20] = target: T4, Cytochrome P450 2C9 (Homo sapiens, UniProt P11712)
Cytochrome P450 2C9 [21] = target: T4, Cytochrome P450 2C9; remark: listed apart in the source

DNA dC->dU-editing enzyme APOBEC-3G, sequence (Q9HC16 whole entry): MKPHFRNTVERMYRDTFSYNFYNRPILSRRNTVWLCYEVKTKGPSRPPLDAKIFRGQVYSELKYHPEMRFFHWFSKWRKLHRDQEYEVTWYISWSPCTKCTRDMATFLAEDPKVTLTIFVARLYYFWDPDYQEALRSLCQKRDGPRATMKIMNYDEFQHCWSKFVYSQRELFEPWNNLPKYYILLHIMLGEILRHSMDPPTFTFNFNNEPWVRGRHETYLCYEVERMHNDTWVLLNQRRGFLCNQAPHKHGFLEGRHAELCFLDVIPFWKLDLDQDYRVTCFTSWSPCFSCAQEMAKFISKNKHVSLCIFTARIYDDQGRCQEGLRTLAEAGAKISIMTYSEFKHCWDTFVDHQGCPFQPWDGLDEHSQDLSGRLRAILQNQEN
Alkaline phosphatase, placental type, sequence (P05187 whole entry): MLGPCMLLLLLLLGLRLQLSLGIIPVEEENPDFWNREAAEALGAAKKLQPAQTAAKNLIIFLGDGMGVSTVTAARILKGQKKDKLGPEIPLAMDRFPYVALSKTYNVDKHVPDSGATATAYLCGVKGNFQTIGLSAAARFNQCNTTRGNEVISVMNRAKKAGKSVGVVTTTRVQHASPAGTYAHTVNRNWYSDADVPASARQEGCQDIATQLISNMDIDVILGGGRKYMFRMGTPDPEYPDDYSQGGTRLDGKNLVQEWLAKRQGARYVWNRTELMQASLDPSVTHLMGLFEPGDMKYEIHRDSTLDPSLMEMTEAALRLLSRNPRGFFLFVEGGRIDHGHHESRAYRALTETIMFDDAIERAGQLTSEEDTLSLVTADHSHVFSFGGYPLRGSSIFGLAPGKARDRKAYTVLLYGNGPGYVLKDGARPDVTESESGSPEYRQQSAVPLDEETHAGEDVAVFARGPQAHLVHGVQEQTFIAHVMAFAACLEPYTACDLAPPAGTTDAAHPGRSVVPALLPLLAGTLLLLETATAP
Peroxisome proliferator-activated receptor gamma/Nuclear receptor coactivator 2, sequence (P37231 whole entry): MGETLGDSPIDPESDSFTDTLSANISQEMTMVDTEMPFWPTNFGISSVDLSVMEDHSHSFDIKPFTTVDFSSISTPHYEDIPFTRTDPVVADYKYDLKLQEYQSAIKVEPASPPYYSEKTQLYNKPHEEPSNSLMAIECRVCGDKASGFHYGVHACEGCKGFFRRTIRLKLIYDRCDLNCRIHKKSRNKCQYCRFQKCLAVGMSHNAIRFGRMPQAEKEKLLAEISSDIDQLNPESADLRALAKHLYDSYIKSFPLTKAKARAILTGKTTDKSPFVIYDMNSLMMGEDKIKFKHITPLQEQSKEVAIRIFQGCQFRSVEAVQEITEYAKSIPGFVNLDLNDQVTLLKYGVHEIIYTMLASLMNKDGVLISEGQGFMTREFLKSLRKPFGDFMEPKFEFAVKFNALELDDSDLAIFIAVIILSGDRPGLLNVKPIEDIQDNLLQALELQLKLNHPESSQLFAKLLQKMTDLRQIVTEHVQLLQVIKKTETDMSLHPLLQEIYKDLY
Peroxisome proliferator-activated receptor gamma/Nuclear receptor coactivator 2, sequence (Q15596 whole entry, further chain): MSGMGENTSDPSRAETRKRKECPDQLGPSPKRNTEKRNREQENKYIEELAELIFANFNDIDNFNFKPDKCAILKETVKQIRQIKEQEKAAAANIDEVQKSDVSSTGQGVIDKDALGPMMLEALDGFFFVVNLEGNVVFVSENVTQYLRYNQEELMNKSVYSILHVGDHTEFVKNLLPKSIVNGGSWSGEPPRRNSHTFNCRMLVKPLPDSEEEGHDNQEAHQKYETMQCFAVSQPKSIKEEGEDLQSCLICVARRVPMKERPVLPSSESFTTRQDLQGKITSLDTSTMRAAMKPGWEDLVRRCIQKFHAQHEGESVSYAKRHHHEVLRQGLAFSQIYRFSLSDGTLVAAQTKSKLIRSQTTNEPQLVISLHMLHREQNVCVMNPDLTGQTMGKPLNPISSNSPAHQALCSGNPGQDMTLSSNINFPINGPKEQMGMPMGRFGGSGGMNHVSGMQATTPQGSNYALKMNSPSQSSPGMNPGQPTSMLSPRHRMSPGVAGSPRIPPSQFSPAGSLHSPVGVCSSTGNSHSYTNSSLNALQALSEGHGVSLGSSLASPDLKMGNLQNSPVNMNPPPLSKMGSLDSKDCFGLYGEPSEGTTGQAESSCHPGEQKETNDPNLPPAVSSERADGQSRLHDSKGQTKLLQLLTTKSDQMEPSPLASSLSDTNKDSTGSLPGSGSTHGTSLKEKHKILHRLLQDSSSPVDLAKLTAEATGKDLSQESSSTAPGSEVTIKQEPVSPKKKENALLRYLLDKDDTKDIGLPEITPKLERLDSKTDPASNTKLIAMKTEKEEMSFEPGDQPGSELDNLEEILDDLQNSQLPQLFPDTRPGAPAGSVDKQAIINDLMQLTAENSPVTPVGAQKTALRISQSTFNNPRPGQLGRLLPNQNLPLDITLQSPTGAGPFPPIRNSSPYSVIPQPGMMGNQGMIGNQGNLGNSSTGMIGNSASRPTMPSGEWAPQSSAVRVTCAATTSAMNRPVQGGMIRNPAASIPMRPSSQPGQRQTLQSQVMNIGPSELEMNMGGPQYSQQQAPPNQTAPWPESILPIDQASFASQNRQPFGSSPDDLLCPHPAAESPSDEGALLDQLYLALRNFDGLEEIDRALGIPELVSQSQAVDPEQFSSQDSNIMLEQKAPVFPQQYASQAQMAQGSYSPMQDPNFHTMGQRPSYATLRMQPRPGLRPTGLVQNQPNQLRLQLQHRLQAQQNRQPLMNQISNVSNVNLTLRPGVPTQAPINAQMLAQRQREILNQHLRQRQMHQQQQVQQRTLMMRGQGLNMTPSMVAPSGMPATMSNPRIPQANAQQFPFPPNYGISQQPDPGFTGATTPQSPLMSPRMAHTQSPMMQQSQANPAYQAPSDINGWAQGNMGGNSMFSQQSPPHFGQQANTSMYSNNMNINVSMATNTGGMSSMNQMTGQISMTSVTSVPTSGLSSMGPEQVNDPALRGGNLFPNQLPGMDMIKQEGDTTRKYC
Peroxisome proliferator-activated receptor gamma/Nuclear receptor coactivator 3, sequence (P37231 whole entry): as the sequence (P37231 whole entry) above
Peroxisome proliferator-activated receptor gamma/Nuclear receptor coactivator 3, sequence (Q9Y6Q9 whole entry, further chain): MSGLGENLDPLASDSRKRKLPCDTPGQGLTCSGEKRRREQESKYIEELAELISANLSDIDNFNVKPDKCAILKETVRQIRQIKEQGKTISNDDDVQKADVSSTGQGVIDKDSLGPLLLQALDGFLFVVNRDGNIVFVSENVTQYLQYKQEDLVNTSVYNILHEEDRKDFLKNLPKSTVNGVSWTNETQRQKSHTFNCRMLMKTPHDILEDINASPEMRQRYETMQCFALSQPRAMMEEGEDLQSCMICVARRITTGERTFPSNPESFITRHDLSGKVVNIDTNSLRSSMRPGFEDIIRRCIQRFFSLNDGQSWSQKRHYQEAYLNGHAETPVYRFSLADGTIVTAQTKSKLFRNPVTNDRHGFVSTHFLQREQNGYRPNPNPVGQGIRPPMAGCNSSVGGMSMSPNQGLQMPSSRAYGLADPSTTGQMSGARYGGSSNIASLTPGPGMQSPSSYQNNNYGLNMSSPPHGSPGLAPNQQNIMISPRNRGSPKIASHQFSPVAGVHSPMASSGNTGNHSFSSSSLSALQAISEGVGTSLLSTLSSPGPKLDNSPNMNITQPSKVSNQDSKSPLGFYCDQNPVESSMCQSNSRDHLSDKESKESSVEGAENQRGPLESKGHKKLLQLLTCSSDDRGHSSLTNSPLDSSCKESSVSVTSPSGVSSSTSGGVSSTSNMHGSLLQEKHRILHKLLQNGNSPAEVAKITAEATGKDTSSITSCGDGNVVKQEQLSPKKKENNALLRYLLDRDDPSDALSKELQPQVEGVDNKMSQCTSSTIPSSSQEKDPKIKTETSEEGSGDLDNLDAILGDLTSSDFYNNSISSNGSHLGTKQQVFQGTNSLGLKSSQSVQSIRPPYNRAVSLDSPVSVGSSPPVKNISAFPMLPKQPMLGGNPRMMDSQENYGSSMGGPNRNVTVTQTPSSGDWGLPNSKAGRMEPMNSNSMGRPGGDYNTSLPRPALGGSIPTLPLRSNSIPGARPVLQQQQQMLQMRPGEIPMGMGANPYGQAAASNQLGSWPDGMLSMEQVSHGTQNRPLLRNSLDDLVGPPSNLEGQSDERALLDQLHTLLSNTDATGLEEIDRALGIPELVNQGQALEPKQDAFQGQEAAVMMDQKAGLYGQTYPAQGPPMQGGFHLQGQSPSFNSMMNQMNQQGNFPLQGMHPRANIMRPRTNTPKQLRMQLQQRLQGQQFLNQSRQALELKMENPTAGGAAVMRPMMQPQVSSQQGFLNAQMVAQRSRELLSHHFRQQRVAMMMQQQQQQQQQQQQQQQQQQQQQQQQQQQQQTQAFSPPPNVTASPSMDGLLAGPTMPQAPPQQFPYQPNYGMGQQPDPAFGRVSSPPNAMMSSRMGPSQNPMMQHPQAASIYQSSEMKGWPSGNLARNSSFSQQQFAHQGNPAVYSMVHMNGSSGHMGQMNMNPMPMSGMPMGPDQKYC
DNA dC->dU-editing enzyme APOBEC-3A, sequence (P31941 whole entry): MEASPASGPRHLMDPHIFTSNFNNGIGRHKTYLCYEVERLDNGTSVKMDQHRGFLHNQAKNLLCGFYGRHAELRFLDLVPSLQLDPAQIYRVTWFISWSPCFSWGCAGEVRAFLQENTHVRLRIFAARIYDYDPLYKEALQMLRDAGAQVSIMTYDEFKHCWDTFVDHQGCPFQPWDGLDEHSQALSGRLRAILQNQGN

CN(C)S(=O)(=O)c1ccc(C(=O)NCC[N+]2(C)CCCCCC2)o1
IC50 [1]: 4.08 µM (active) | IC50 [2]: 1.89 µM (active)

CCCn1c(N2CCN(CC(=O)Nc3ccc4c(c3)OCCO4)CC2)nc2ccccc21
EC50 [3]: 3.84 µM (active)

O=C(NCc1ccc2c(c1)OCO2)c1cc(-n2cnnc2)ccc1Cl
IC50 [1]: 2.44 µM (active) | IC50 [2]: 1.64 µM (active)

O=C(NCCc1ccc(O)c(O)c1)C1CCCO1 (centres undefined)
IC50 [4]: > 100 µM (inactive) | IC50 [5]: 44.4 µM (active)

CN1C(=O)c2ccccc2N(C)C1c1ccccc1Cl (centres undefined)
AC50 (Trypsin): 9.6 µM (active)

Cc1nccn1CC(=O)c1ccc(O)c(O)c1
IC50 [4]: 59.6 µM (active) | AC50 [6]: 4.4 µM (active) | IC50 [5]: 2.37 µM (active)

O=C(O)c1ccccc1-c1ccccc1C(=O)Nc1cccc(-c2nc3ccccc3o2)c1
EC50 [7]: > 180 µM (inactive) | EC50 [8]: > 160 µM (inactive) | EC50 [9]: 2.62 µM (active) | EC50 [10]: > 150 µM (inactive) | IC50 (Aminopeptidase N): 16.4 µM (active)

COc1cc(C(=O)NCCOc2cc(C)ccc2C(C)C)cc(OC)c1OC
IC50 (HEK293 [11]): 5.52 µM (active) | EC50 (HEK293 [12]): 3.03 µM (active) | IC50 (HEK293 [13]): 12 µM (active) | IC50 (HEK293 [14]): 5.42 µM (active)

O=c1oc2cc(O)ccc2c2ccccc12
EC50 [15]: > 79.4 µM (not active) | IC50 (Large T antigen): 38.8 µM (active) | EC50 [16]: > 79.4 µM (inactive) | EC50 [17]: > 79.4 µM (not active)

Cc1ccc(-c2nnc(CSc3nnc(COc4ccccc4)n3-c3ccc(C)cc3)o2)cc1
EC50 [3]: 4.75 µM (active)

Cn1c(=O)cc(SCC(=O)NCCCN2CCN(c3ccc(F)cc3)CC2)c2ccccc21
EC50 [15]: > 79.4 µM (not active) | EC50 [16]: > 79.4 µM (inactive) | EC50 [17]: > 26.5 µM (not active)

Cc1cnc(Nc2nc3ccccc3o2)nc1C(=O)Nc1cccc(C(F)(F)F)c1
EC50 [3]: 5.15 µM (active)

CCCNC(=O)c1ccc(N2CCC3(CC2)CC(c2cccc(Br)c2)=NO3)c(NC(=O)c2ccc(Cl)c([N+](=O)[O-])c2)c1
IC50 [18]: > 80 µM (inactive)

Cc1cc(O)oc2nnc(-c3ccccc3)c1-2
IC50 [4]: 0.23 µM (active) | IC50 [5]: > 100 µM (inactive) | CC50 [19]: 34.3 µM (active)

CC(C)CNC(=O)O
AC50 (Cytochrome P450 2C19): inconclusive | AC50 (Cytochrome P450 2D6): inconclusive

Cc1cc(OCC(=O)N2CCC(C(N)=O)CC2)c2c3c(c(=O)oc2c1)CCCC3
IC50 [18]: > 80 µM (inactive)

COc1ccc(C(=O)CN(C(=O)c2ccc(Cl)cc2)N2C(=O)c3ccccc3C2=O)cc1
AC50 (Cytochrome P450 2C9 [20]): 10 µM (inconclusive) | AC50 (Cytochrome P450 2D6): inconclusive

Cc1ccc(Sc2ccc(NC(=O)c3ccc(S(C)(=O)=O)cc3Cl)cc2)cc1
EC50 [15]: > 8.82 µM (not active) | AC50 (Cytochrome P450 2C19; read-out: AC50): 39.8 µM (inconclusive) | AC50 (Cytochrome P450 2C9 [21]): inconclusive | EC50 [16]: 5.96 µM (active) | EC50 [17]: 5.64 µM (active)

O=C(CN1C(=O)c2ccccc2S1(=O)=O)c1ccc(OC(F)F)cc1
IC50 [18]: > 80 µM (inactive)

C=CCn1c(SCC(=O)c2ccc(O)c(O)c2)nnc1-c1cccc(C)c1
IC50 [4]: 17.8 µM (active) | IC50 [5]: 5.59 µM (active)

Cc1cccc(N2CCN(C(=O)CCCOc3ccccc3)CC2)c1C
EC50 [3]: 5.65 µM (active)

CCOC(=O)C1CCN(C(=O)CSc2cc(=O)n(C)c3ccccc23)CC1
EC50 [15]: > 79.4 µM (not active) | EC50 [16]: > 79.4 µM (inactive) | EC50 [17]: > 79.4 µM (not active)

CC1CCN(C(=O)c2ncn(C)c2C(=O)N2CCC(C)CC2)CC1
IC50 [1]: 2.83 µM (active) | IC50 [2]: 2.34 µM (active)

C[N+]1(CCCOC(=O)C2(c3ccccc3)CCCC2)CCOCC1
IC50 [1]: 1.99 µM (active) | IC50 [2]: 1.61 µM (active)
